# How the values were obtained:
# [1] = target: T1, [3H]-NMS-occupied muscarinic hM1 subtype (Homo sapiens, UniProt P11229); test: biochemical
# T1 sequence (P11229 1-460): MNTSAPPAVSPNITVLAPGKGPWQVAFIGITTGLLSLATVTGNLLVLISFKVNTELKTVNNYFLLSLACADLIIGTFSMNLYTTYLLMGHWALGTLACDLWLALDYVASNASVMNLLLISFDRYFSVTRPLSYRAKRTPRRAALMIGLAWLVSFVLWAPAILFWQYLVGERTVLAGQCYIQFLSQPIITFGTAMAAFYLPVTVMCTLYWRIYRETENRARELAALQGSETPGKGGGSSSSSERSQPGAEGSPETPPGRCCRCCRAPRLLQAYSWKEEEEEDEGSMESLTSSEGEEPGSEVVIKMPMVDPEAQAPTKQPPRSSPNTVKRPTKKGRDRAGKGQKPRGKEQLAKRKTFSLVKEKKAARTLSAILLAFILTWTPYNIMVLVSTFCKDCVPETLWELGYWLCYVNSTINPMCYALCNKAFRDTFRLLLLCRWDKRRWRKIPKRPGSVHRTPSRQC
# Description: (§1) All tested compounds were purchased from Merck KGaA (Darmstadt, Germany). The radioligand binding experiments were performed with membranes from Chinese Hamster Ovary (CHO) cells stably transfected with the five cloned human muscarinic receptor subtypes (hM1-5). Membrane fractions were prepared according to the protocol, which have been previously described; membranes were stored at −80 °C until use. Nonspecific binding was defined by the radioactivity bound in the presence of 10 µM atropine.
# (§2) Off-rate assays were performed as described elsewhere to estimate the affinity of the ligands for the [^3H]-NMS-occupied receptor (log Kocc). Briefly, a high concentration of membranes (about 0.1 mg/mL) was incubated with a high concentration of [^3H]-NMS (2 nM) for 60 min at room temperature (mix membrane). Next, 100 µL aliquots were distributed into polypropylene tubes that were empty or in a final volume of 1 mL binding buffer with 1 µM atropine alone and in the presence of a range of concentrations of tested compound (1 nM–0.1 mM).
# (§3) The effect on the radioligand dissociation of each tested ligand was determined at 0 min and at one time point, which was chosen to be ca 2.5 dissociation half-lives of [^3H]-NMS alone from each subtype receptors. Later (80 min for hM1, 20 min for hM2 and 70 min for hM5), the samples were filtered and counted as previously reported. Non specific binding was measured as previously reported.
# (§4) All the results are expressed as means ± SEM obtained from 3-4 independent experiments each one performed in duplicate.
# [2] = target: T2, hM1 muscarinic receptor (Homo sapiens, UniProt P11229); test: Equilibrium inhibition binding with [3H]-NMS, CHO cell membranes; details: [3H]-NMS 0.2 nM, mean ± SEM of 3-4 experiments, read-out: pKi hM1 (converted)
# T2 construct: expressed in transfected cells; host or cells: CHO cells, stably transfected; membrane fractions
# T2 sequence (P11229 1-460): T1 sequence (P11229 1-460)
# In short: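 Membranes from CHO cells stably expressing the human subtype (25–70 µg/mL) incubated with [3H]-NMS for 2 h at room temperature, filtered and counted; nonspecific binding set with 10 µM atropine. IC50 from nonlinear fits converted to Ki; 3-4 independent experiments in duplicate.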
# [3] = target: T3, [3H]-NMS-occupied muscarinic hM2 subtype (Homo sapiens, UniProt P08172); test: One point kinetic (off-rate) assay of [3H]-NMS dissociation; format: binding
# T3 construct: expressed in transfected cells; host or cells: CHO cells, stably transfected; membrane fractions
# T3 sequence (P08172 1-466): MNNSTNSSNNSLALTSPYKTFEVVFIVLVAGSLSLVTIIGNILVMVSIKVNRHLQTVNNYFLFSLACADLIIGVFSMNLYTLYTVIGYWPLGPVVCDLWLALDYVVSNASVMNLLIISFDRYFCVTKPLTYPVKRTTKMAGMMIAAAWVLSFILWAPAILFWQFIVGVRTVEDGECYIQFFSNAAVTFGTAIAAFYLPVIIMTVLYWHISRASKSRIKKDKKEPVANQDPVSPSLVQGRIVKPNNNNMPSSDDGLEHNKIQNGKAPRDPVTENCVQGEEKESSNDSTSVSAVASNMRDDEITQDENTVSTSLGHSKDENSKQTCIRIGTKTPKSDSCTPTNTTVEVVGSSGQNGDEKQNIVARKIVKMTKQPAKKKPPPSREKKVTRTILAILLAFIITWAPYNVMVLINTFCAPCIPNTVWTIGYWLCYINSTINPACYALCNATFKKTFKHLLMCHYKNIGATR
# Description: as §1, §2, §3, §4
# [4] = target: T4, hM2 subtype (Homo sapiens, UniProt P08172); test: Full time course [3H]-NMS dissociation kinetic assay; format: binding; details: versus control, concentration 0.3 μM
# T4 construct: expressed in transfected cells; host or cells: CHO cells, stably transfected; membrane fractions
# T4 sequence (P08172 1-466): T3 sequence (P08172 1-466)
# Description: as §1
# Dissociation binding assays were conducted in assay buffer at room temperature as above described. Membranes were preincubated with 2 nM [^3H]-NMS for 60 min at room temperature (mix membrane). […] Nonspecific binding was measured in separately prepared tubes containing 100 µL of mix membrane plus atropine 10 µM. […]
# Radioligand dissociation rates in absence or in presence of the allosteric modulator were analyzed by non linear regression according to the equation for mono-exponential decay using GraphPad Prism 5.02.
# as §4
# [5] = target: five human muscarinic receptors subtypes (hM1–hM5); test: Equilibrium binding, summary statements over the five subtypes
# Description: as §1
# Aliquots of membranes (25–70 µg/mL) were added and incubated for 2 h at room temperature, filtered through UniFilter GF/B plates (PerkinElmer Life and Analytical Science, Monza, Italy) using a FilterMate cell harvester (PerkinElmer Life and Analytical Science, Monza, Italy). The filters were washed several times with ice-cold MilliQ water. Then, the plates were counted in a β-counter (TopCount NXT microplate scintillation counter, PerkinElmer Life and Analytical Science, Monza, Italy).
# Data points from radioligand inhibition binding curve were fitted to models using nonlinear regression equation to determine inhibitor potency (IC50) estimates, which were then converted to Ki values as appropriate.
# as §4
structure (smiles),measurement,setting,value
Cc1cc(N)c2ccccc2[n+]1CCCCCCCCCC[n+]1c(C)cc(N)c2ccccc21 [dequalinium],Kd,[1],204 nM
same,Ki,[2],41.7 nM
same,selectivity ratio hM2/hM1,[3]; from log Kocc values,10.7
same,selectivity ratio hM2/hM5,[3]; from log Kocc values,174
same,Kd,[3]; read-out: Log Kocc hM2 (converted),19.1 nM
same,t1/2 reduction,[4],17.3 fold
same,pKi values (muscarinic subtypes overall),[5],greater than 7.0

# Reference: article PMC7503225, “Repositioning Dequalinium as Potent Muscarinic Allosteric Ligand by Combining Virtual Screening Campaigns and Experimental Binding Assays” (International Journal of Molecular Sciences, 2020)
